Consider 16 compounds from ChEMBL document CHEMBL1201862, “PubChem BioAssay data set” (2004).

Among the test systems are CAKI-1; KM12; UO-31; HCT-15; CCRF-CEM; COLO 205; SW-620; IGROV-1; RXF 393; SR; UACC-257; HCT-116; HL-60; SK-MEL-5; SK-MEL-2.
What all share (assay): inhibition of tumour cell growth, NCI panel, 48 h

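Test compounds were applied to cells in 96-well plates for 48 hours at 5 doses. Here, GI50 denotes the concentration required for 50% inhibition of growth.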 Activity calls are given as the source filed them. Cut-off read from the data, not from the text of the source: active = GI50 up to about 1.1 µM and inactive = higher.

On to `CC1CCCc2c(CC3CC(=O)NC(=O)C3)n[nH]c21` (centres undefined), for which the GI50 in the test with CAKI-1 was > 100 µM (inactive); in the test on KM12, > 100 µM (inactive); with UO-31 it was > 100 µM (inactive); with HCT-15, greater than 100 µM; with CCRF-CEM, > 100 µM (inactive); in the test with COLO 205, > 100 µM (inactive). The GI50 with SW-620, with IGROV-1, in the test on RXF 393, in the test with SR, in the test on UACC-257 and with HCT-116 was > 100 µM (inactive) throughout. In addition, in the test on HL-60, the GI50 is > 100 µM (inactive).

As to `CC(C)(C)c1cc(C2c3cc4c(cc3OC(O)(CO)C2C(=O)O)OCO4)cc(C(C)(C)C)c1O.CC(C)(C)c1cc(C2c3cc4c(cc3OC3(O)COC(=O)C23)OCO4)cc(C(C)(C)C)c1O` (centres undefined), the GI50 in the test on CAKI-1 is 18.4 µM (inactive); in the test with UO-31, 13.6 µM (inactive); in the test with HCT-15, 8.2 µM; with SK-MEL-5, 9.48 µM (inactive); in the test with CCRF-CEM, 3.58 µM (inactive); with COLO 205, 20.4 µM (inactive). Further, the GI50 with SW-620 is 14.4 µM (inactive); in the test with IGROV-1, 16.4 µM (inactive); in the test on RXF 393, 11.9 µM (inactive); in the test on UACC-257, 13.2 µM (inactive); in the test with HCT-116, 8.47 µM (inactive); in the test with HL-60 it was 7.73 µM (inactive).

Turning to `Cc1ccccc1NC(=O)c1ccc([N+](=O)[O-])cc1`, the GI50 is > 100 µM (inactive) in the test on CAKI-1; 67.5 µM (inactive) in the test on KM12; > 100 µM (inactive) in the test with UO-31; 66.2 µM in the test on HCT-15; 84.9 µM (inactive) in the test on SK-MEL-5; > 100 µM (inactive) in the test with CCRF-CEM. For the same compound, the GI50 in the test with COLO 205 is > 100 µM (inactive); with SW-620 it was > 100 µM (inactive); in the test on IGROV-1, > 100 µM (inactive); in the test with RXF 393, 15.8 µM (inactive); in the test with UACC-257, > 100 µM (inactive); with HCT-116 it was > 100 µM (inactive). In addition, in the test with HL-60, the GI50 is 46.8 µM (inactive).

Turning to `COc1cc(Nc2nc3cc(C(F)(F)F)ccc3nc2C)cc(OC)c1OC`, the GI50 in the test on CAKI-1 was 7.11 µM (inactive); in the test with KM12, 6.32 µM (inactive); with UO-31 it was 4.22 µM (inactive); in the test with HCT-15 it was 3.32 µM; with SK-MEL-5 it was 9.79 µM (inactive); with CCRF-CEM it was 5.74 µM (inactive). The GI50 is 12.1 µM (inactive) in the test with COLO 205; 13.3 µM (inactive) with SW-620; 11 µM (inactive) with SK-MEL-2; 13.6 µM (inactive) with IGROV-1; 5.46 µM (inactive) with RXF 393; 6.15 µM (inactive) with SR. Further, the GI50 with UACC-257 was 6.37 µM (inactive); in the test on HCT-116, 8.81 µM (inactive).

As to `COC(=O)C1=CC2C(=O)OC1CC2C#N` (centres undefined), the GI50 in the test on CAKI-1, in the test with KM12, in the test with UO-31, in the test on SK-MEL-5, in the test on CCRF-CEM and with COLO 205 was > 100 µM (inactive) each time. Further, the GI50 with SW-620, in the test on IGROV-1, in the test on SR, with UACC-257, in the test on HCT-116 and in the test with HL-60 was > 100 µM (inactive) in each case.

For `O=C1C(=O)N(C(=O)c2ccc(Cl)c(Cl)c2)c2ccc(Cl)cc21`, the GI50 in the test with KM12 is > 100 µM (inactive); with UO-31, > 100 µM (inactive); with SK-MEL-5, > 100 µM (inactive); with CCRF-CEM, 38.8 µM (inactive); in the test on COLO 205, > 100 µM (inactive); in the test on SW-620, 92 µM (inactive). Further, the GI50 was > 100 µM (inactive) with IGROV-1, > 100 µM (inactive) with RXF 393, 89.7 µM (inactive) in the test on SR and 20.3 µM (inactive) with HL-60.

Regarding `COc1cc(-c2ccccc2)c(OC)cc1CCl`, the GI50 in the test with CAKI-1 is > 100 µM (inactive); in the test on KM12, > 100 µM (inactive); with UO-31, > 100 µM (inactive); in the test on HCT-15, greater than 100 µM; in the test on SK-MEL-5 it was > 100 µM (inactive); with CCRF-CEM it was > 100 µM (inactive). For the same compound, the GI50 in the test on COLO 205, in the test with SW-620, with SK-MEL-2, with IGROV-1, in the test with RXF 393 and in the test with UACC-257 was > 100 µM (inactive) in each case. Moreover, the GI50 in the test on HCT-116 and in the test with HL-60 was > 100 µM (inactive) in each case.

As for `COc1ccc(/C=C/C(=O)c2cc(C(=O)O)c(OC)cc2OC)cc1OC`, the GI50 in the test with KM12 was > 100 µM (inactive); with HCT-15 it was greater than 100 µM; with SK-MEL-5, > 100 µM (inactive); in the test on CCRF-CEM, > 100 µM (inactive); in the test on COLO 205, > 100 µM (inactive); with SW-620, > 100 µM (inactive). Also, the GI50 in the test with IGROV-1, in the test with SR, with UACC-257, with HCT-116 and with HL-60 was > 100 µM (inactive) in each case.

Turning to `OC(CC1SCCCS1)c1ccccc1` (centres undefined), the GI50 with CAKI-1 is > 100 µM (inactive); in the test with KM12, > 100 µM (inactive); in the test on UO-31, > 100 µM (inactive); with HCT-15 it was greater than 100 µM; in the test with SK-MEL-5, > 100 µM (inactive); in the test with CCRF-CEM, > 100 µM (inactive). Besides, the GI50 in the test on COLO 205, in the test on SW-620, with SK-MEL-2, in the test with IGROV-1, in the test on RXF 393 and in the test with UACC-257 was > 100 µM (inactive) each time. The GI50 in the test with HCT-116 and in the test with HL-60 was > 100 µM (inactive) throughout.

Turning to `O=c1c2ccccc2c(=O)c2c1c1[nH]c3ccccc3c1c1c(=O)c3ccccc3c(=O)c21`, the GI50 was > 100 µM (inactive) with CAKI-1; > 100 µM (inactive) with KM12; > 100 µM (inactive) with UO-31; greater than 100 µM in the test on HCT-15; > 100 µM (inactive) in the test with SK-MEL-5; 94 µM (inactive) with CCRF-CEM. In addition, the GI50 with COLO 205, in the test on SW-620, in the test on SK-MEL-2, with IGROV-1, with RXF 393 and in the test on UACC-257 was > 100 µM (inactive) throughout. In addition, the GI50 with HCT-116 and in the test on HL-60 was > 100 µM (inactive) each time.

`[N-]=[N+]=NC1(Cc2ccccc2)C(=O)Nc2ccccc2C1=O` (centres undefined): the GI50 is > 100 µM (inactive) in the test with CAKI-1; > 100 µM (inactive) in the test on KM12; 39.6 µM (inactive) with UO-31; greater than 100 µM in the test on HCT-15; > 100 µM (inactive) in the test on SK-MEL-5; > 100 µM (inactive) in the test on CCRF-CEM. Further, the GI50 in the test on COLO 205 is > 100 µM (inactive); with SW-620, > 100 µM (inactive); with SK-MEL-2 it was > 100 µM (inactive); with IGROV-1, 88.7 µM (inactive); with SR it was > 100 µM (inactive); with UACC-257 it was > 100 µM (inactive). Moreover, the GI50 with HCT-116 and in the test with HL-60 was > 100 µM (inactive) in each case.

Take `O=[PH](O)c1cc2ccccc2c2ccccc12`: the GI50 in the test with KM12, in the test on SK-MEL-5, in the test with CCRF-CEM, with COLO 205, in the test on SW-620 and with IGROV-1 was > 100 µM (inactive) each time. Moreover, the GI50 in the test with RXF 393, with HCT-116 and in the test with HL-60 was > 100 µM (inactive) each time.

Turning to `CC(=O)OC(CC1(C)C(C)CCC23COC(=O)C2=CCCC31)c1ccoc1` (centres undefined), the GI50 in the test on KM12 is 26.2 µM (inactive); in the test on UO-31, 19.1 µM (inactive); with HCT-15, 20.4 µM; in the test on SK-MEL-5, 19.5 µM (inactive); in the test with CCRF-CEM, 20.2 µM (inactive); in the test with COLO 205, 40.4 µM (inactive). For the same compound, the GI50 with SW-620 was 24.9 µM (inactive); with SK-MEL-2 it was 23.4 µM (inactive); with RXF 393, 14.2 µM (inactive); in the test on UACC-257, 24 µM (inactive); in the test with HCT-116 it was 20.5 µM (inactive).

Consider `C=C1C2CC(OC(C)=O)C3(C)C(c4ccoc4)OC(=O)[C@@H](O)[C@]13OC1C[C@H](OC(C)=O)C(C)(C)[C@H](CC(=O)OC)[C@]12C` (some centres undefined), for which the GI50 in the test with KM12 was > 100 µM (inactive); in the test on UO-31 it was > 100 µM (inactive); in the test with HCT-15 it was greater than 100 µM; in the test with SK-MEL-5 it was > 100 µM (inactive); in the test on CCRF-CEM it was > 100 µM (inactive); with COLO 205 it was > 100 µM (inactive). The GI50 in the test on SW-620 is > 100 µM (inactive); in the test on SK-MEL-2 it was > 100 µM (inactive); with IGROV-1, > 100 µM (inactive); in the test on HCT-116, > 100 µM (inactive); in the test with HL-60 it was 50.6 µM (inactive).

With `N#C/C(=C\c1ccc(O)c(O)c1)C(N)=O`, the GI50 is 95.9 µM (inactive) in the test on CAKI-1; 33.1 µM (inactive) in the test with KM12; 31.8 µM (inactive) in the test with UO-31; 50.6 µM in the test on HCT-15; 5.78 µM (inactive) in the test on CCRF-CEM; 58.1 µM (inactive) in the test with COLO 205. Moreover, the GI50 is 43.9 µM (inactive) with SW-620; > 100 µM (inactive) with SK-MEL-2; 76.4 µM (inactive) in the test with IGROV-1; 19.7 µM (inactive) with RXF 393; 36 µM (inactive) in the test with UACC-257; 23 µM (inactive) in the test with HCT-116. For the same compound, the GI50 with HL-60 is 10.1 µM (inactive).

With `COc1cc(CCc2ccc(N)cc2)cc(OC)c1OC`, the GI50 was 67.8 µM (inactive) in the test with CAKI-1; 18.7 µM (inactive) in the test on KM12; > 45.3 µM (inactive) in the test with UO-31; 43.4 µM with HCT-15; 29.4 µM (inactive) with SK-MEL-5; 49.4 µM (inactive) with CCRF-CEM. In addition, the GI50 in the test on COLO 205 was 18.9 µM (inactive); with SW-620, 45.5 µM (inactive); in the test with SK-MEL-2, 27.8 µM (inactive); with IGROV-1 it was > 86.9 µM (inactive); in the test on RXF 393, 50.9 µM (inactive); in the test on UACC-257 it was > 94.4 µM (inactive). The results for the GI50 with HCT-116 and in the test with HL-60 were 50.9 µM (inactive) and > 48 µM (inactive), respectively.
